Source: ChEMBL document CHEMBL3044631, “Synthesis of 2-[4,5-dimethyl-1-(phenylamino)-1H-imidazol-2-ylthio]-N-(thiazole-2-yl)acetamide derivatives and their anticancer activities” (2013)

Columns and labels:
Type in all cases: functional
[1] = system: HCT-116; assay: Anticancer activity against Homo sapiens (human) HCT116 cells after 48 hr by SRB assay; settings: HCT-116, 48 h
[2] = system: SNB-19; assay: Anticancer activity against Homo sapiens (human) SNB19 cells after 48 hr by SRB assay; settings: SNB-19, 48 h
[3] = system: CAKI-1; assay: Anticancer activity against Homo sapiens (human) CAKI-1 cells after 48 hr by SRB assay; settings: CAKI-1, 48 h
[4] = system: 786-0; assay: Anticancer activity against Homo sapiens (human) 786-0 cells after 48 hr by SRB assay; settings: 786-0, 48 h
[5] = system: HCC 2998; assay: Anticancer activity against Homo sapiens (human) HCC2998 cells after 48 hr by SRB assay; settings: HCC 2998, 48 h
[6] = system: NCI-H226; assay: Anticancer activity against Homo sapiens (human) NCI-H226 cells after 48 hr by SRB assay; settings: NCI-H226, 48 h
[7] = system: HOP-92; assay: Anticancer activity against Homo sapiens (human) HOP92 cells after 48 hr by SRB assay; settings: HOP-92, 48 h; for CC50: read-out: LC50 (the source's name)
[8] = system: SR; assay: Anticancer activity against Homo sapiens (human) SR cells after 48 hr by SRB assay; settings: for CC50: read-out: LC50 (the source's name)
[9] = system: RPMI-8226; assay: Anticancer activity against Homo sapiens (human) RPMI8226 cells after 48 hr by SRB assay; settings: RPMI-8226, 48 h; for CC50: read-out: LC50 (the source's name)
[10] = system: CCRF-CEM; assay: Anticancer activity against Homo sapiens (human) CCRF-CEM cells after 48 hr by SRB assay
[11] = system: MCF7; assay: Anticancer activity against Homo sapiens (human) MCF7 cells after 48 hr by SRB assay; settings: MCF7, 48 h; for CC50: read-out: LC50 (the source's name)
[12] = system: SK-MEL-28; assay: Anticancer activity against Homo sapiens (human) SK-MEL-28 cells after 48 hr by SRB assay; settings: SK-MEL-28, 48 h
[13] = system: PC-3; assay: Anticancer activity against Homo sapiens (human) PC3 cells after 48 hr by SRB assay; settings: PC-3, 48 h
[14] = system: RXF 393; assay: Anticancer activity against Homo sapiens (human) RXF393 cells after 48 hr by SRB assay; settings: RXF 393, 48 h

`Cc1ccc(Nn2c(SCC(=O)Nc3nc(-c4ccccc4)cs3)nc(C)c2C)cc1` was tested, and the GI50 [1] was 2.82 µM, the LC50 [1] was greater than 100 µM and the TGI [1] was 26.5 µM. It also gave a GI50 [2] of 7.49 µM, an LC50 [2] greater than 100 µM and a TGI [2] greater than 100 µM. The GI50 [3] was 1.86 µM, the LC50 (concentration killing 50% of cells) [3] was 99.3 µM and the TGI [3] was 6.1 µM. For the same molecule, the GI50 [4] was 4.41 µM, the LC50 (lethal concentration 50) [4] was greater than 100 µM and the TGI [4] was greater than 100 µM.
In the case of `Cc1nc(SCC(=O)Nc2nc(-c3ccc(Cl)cc3)cs2)n(Nc2ccccc2)c1C`, the GI50 [5] is reported as 10.6 µM, the LC50 [5] is reported as 82.6 µM and the TGI [5] is reported as 29.5 µM. The GI50 [1] was 1.84 µM, the LC50 [1] was 15.5 µM and the TGI [1] was 4.62 µM. It also gave a GI50 [6] of 3.37 µM, an LC50 [6] of 93.9 µM and a TGI [6] of 18.8 µM. It also gave a GI50 [7] of 1.61 µM, a TGI [7] of 6.89 µM and a CC50 [7] of 38.9 µM. It also gave a GI50 [8] of 3.81 µM, a TGI [8] greater than 100 µM and a CC50 [8] greater than 100 µM. It also gave a GI50 [9] of 3.55 µM, a TGI [9] greater than 100 µM and a CC50 [9] greater than 100 µM. For the same molecule, the GI50 [10] was 5.49 µM, the LC50 (concentration killing 50% of cells) [10] was greater than 100 µM and the TGI [10] was greater than 100 µM. It also gave a GI50 [11] of 2.94 µM, a TGI [11] of 11.4 µM and a CC50 [11] of 52.2 µM. It also gave a GI50 [12] of 10.1 µM, an LC50 [12] of 59.7 µM and a TGI [12] of 24.6 µM. It also gave a GI50 [2] of 9.41 µM, an LC50 [2] of 61.7 µM and a TGI [2] of 24.6 µM. For the same molecule, the GI50 [13] was 2.34 µM, the LC50 (concentration killing 50% of cells) [13] was 38.4 µM and the TGI [13] was 11 µM. It also gave a GI50 [14] of 2.97 µM, an LC50 (50% lethal concentration) [14] of 26.8 µM and a TGI [14] of 7.33 µM. For the same molecule, the GI50 [3] was 3.93 µM, the LC50 (concentration killing 50% of cells) [3] was greater than 100 µM and the TGI [3] was 22.6 µM. It also gave a GI50 [4] of 3.6 µM, an LC50 (lethal concentration 50) [4] of 38.9 µM and a TGI [4] of 13.7 µM.
In the case of `COc1ccc(Nn2c(SCC(=O)Nc3nc(-c4ccc(Cl)cc4)cs3)nc(C)c2C)cc1`, the GI50 [5] is reported as 3.07 µM, the LC50 [5] is reported as greater than 100 µM and the TGI [5] is reported as 9.91 µM. It also gave a GI50 [1] of 2.12 µM, an LC50 [1] greater than 100 µM and a TGI [1] of 14.1 µM. It also gave a GI50 [6] of 3.26 µM, an LC50 [6] greater than 100 µM and a TGI [6] greater than 100 µM. For the same molecule, the GI50 [7] was 2.42 µM, the TGI [7] was 7.8 µM and the CC50 [7] was greater than 100 µM. It also gave a GI50 [8] of 7.02 µM, a TGI [8] greater than 100 µM and a CC50 [8] greater than 100 µM. It also gave a GI50 [9] of 5.8 µM, a TGI [9] greater than 100 µM and a CC50 [9] greater than 100 µM. The GI50 [10] was 3.82 µM, the LC50 (concentration killing 50% of cells) [10] was greater than 100 µM and the TGI [10] was greater than 100 µM. It also gave a GI50 [11] of 3.36 µM, a TGI [11] of 25.5 µM and a CC50 [11] greater than 100 µM. The GI50 [12] was 18 µM, the LC50 [12] was greater than 100 µM and the TGI [12] was greater than 100 µM. For the same molecule, the GI50 [2] was 6.2 µM, the LC50 [2] was greater than 100 µM and the TGI [2] was greater than 100 µM. The GI50 [13] was 2.65 µM, the LC50 (concentration killing 50% of cells) [13] was greater than 100 µM and the TGI [13] was greater than 100 µM. For the same molecule, the GI50 [14] was 3.53 µM, the LC50 (50% lethal concentration) [14] was greater than 100 µM and the TGI [14] was 9.64 µM. The GI50 [3] was 2.16 µM, the LC50 (concentration killing 50% of cells) [3] was greater than 100 µM and the TGI [3] was greater than 100 µM. It also gave a GI50 [4] of 3.46 µM, an LC50 (lethal concentration 50) [4] greater than 100 µM and a TGI [4] of 18.2 µM.
